Test results taken from patent publication US20150344843A1, “DETERGENT TREATED BIOLOGICAL TISSUE WITH LOW RESIDUAL DETERGENT AND METHOD OF PRODUCING THE SAME” (Bacterin International, Inc., priority 2014, published 2015).

Test system: L-929 mouse fibroblast cells
Assay: MEM endpoint dilution assay for liquids (cytotoxic threshold of SDS)
Format: cell-based
Design: key to Cytotoxicity Score: 0: Discrete intracytoplasmic granules, no cell lysis, no reduction of cell growth; 1: Not more than 20% of the cells are round, loosely attached, and without intracytoplasmic granules, or show changes in morphology; occasional lysed cells are present; only slight growth inhibition observable; 2: Not more than 50% of the cells are round, devoid of intracytoplasmic granules, no extensive cell lysis; not more than 50% growth inhibition observable; 3: Not more than 70% of the cell layers contain rounded cells or are lysed; cell layers not completely destroyed, but more than 50% growth inhibition observable; 4: Nearly complete or complete destruction of the cell layers
Conditions: for Cytotoxicity Score: about 24 hours; for Pass/Fail: scores 0-2 Pass, 3-4 Fail per Table 1
Description: To determine the cytotoxic threshold of SDS, an MEM endpoint dilution assay for liquids using L-929 mouse fibroblast cells was performed. Briefly, solutions of Eagle's minimum essential medium with about 5% fetal bovine serum were created with various concentrations of SDS. One mL of the SDS containing medium was placed in a disposable tissue culture labware and a monoloyer of L-929 mouse fibroblasts was placed on top of the media. The cells were incubated for about 24 hours at about 37° C. in a humidified atmosphere of about 5% CO2 in air. The mouse fibroblasts were then […] examined using the semi-quantitative scale defined in Table 1.
Appropriate positive and negative controls were assessed to ensure the validity of the assay.

[1] = SDS concentration 4 μg/mL (approximate)
[2] = SDS concentration 8 μg/mL (approximate)
[3] = SDS concentration 16 μg/mL (approximate)
[4] = SDS concentration 17 μg/mL (approximate)
[5] = SDS concentration 20 μg/mL (approximate)
[6] = SDS concentration 23 μg/mL (approximate)
[7] = SDS concentration 26 μg/mL (approximate)
[8] = SDS concentration 29 μg/mL (approximate)
[9] = SDS concentration 32 μg/mL (approximate)

SMILES: CCCCCCCCCCCCOS(=O)(=O)[O-].[Na+] [SDS, sodium dodecyl sulfate]
- Cytotoxicity Score [1]: 0
- Pass/Fail [1]: Pass
- Cytotoxicity Score [2]: 0
- Pass/Fail [2]: Pass
- Cytotoxicity Score [3]: 0
- Pass/Fail [3]: Pass
- Cytotoxicity Score [4]: 0
- Pass/Fail [4]: Pass
- Cytotoxicity Score [5]: 0
- Pass/Fail [5]: Pass
- Cytotoxicity Score [6]: 1
- Pass/Fail [6]: Pass
- Cytotoxicity Score [7]: 4
- Pass/Fail [7]: Fail
- Cytotoxicity Score [8]: 4
- Pass/Fail [8]: Fail
- Cytotoxicity Score [9]: 4
- Pass/Fail [9]: Fail
- limit of toxicity for SDS, corresponding tissue content (converted from μg/mL limit): 86-98 ng of SDS/mg of tissue
- SDS content for tissue to be non-cytotoxic (threshold from in vitro limit): less than 86 ng of SDS/mg of tissue
